One substance from PMC8233208 (The Journal of Biological Chemistry, 2021) can be followed below.

The assay relates to ZIKV (MR766). The experiment in a line: ZIKV total RNA replication by qRT-PCR in infected A549 cells. The format is cell-based, ZIKV African-lineage MR766 strain. The following applies: 10 μM, RNA replication and NS5 assays.

For the substance destruxin A [Compound 12], the “antiviral (anti-ZIKV) activity, comparison among tested compounds” value is “more potent activities”.
